Key:
FXN protein [1] = experiment: Immunoblot for FXN protein in GM15851 cells; type: cell-based, human; conditions: GM15851, 24 hours, 1 μM (Agent 4: 0.1, 0.5 or 1 μM)
Method: (§1) In FIG. 3A, “50” refers to GM15850 cells and in FIG. 3B, “51” refers to GM15851 cells. Cells were treated as in Example 4.
(§2) Total cell extracts from cell lines were used for immunoblot analysis. Antibodies to frataxin (abcam ab110328, 1:250 dilution) or alpha-Tubulin (Cell Signaling Technologies 2144, 1:1000 dilution) were used. Signal was detected by chemiluminescence with HRP-conjugated secondary antibodies (Bio-Rad 172-1011, 1:2000 for anti-mouse frataxin and GE NA934V, 1:2000 for anti-rabbit alpha-Tubulin).

frataxin (FXN) mRNA = experiment: FXN mRNA by RT-PCR (relative to TBP) in FRDA patient cell line GM15850; type: cell-based, human; conditions: GM15850, 1 μM, 24 hours
Method: Cells were maintained in RPMI 1640 supplemented with 2 mM L-glutamine and 15% fetal bovine serum (FBS) at 37° C. in a humidified atmosphere of 5% CO2. Cell density was maintained between 200,000 cells/mL and 1,000,000 cells/mL. Cell growth and morphology were monitored by phase contrast microscopy and cell viability by trypan blue exclusion. To maintain cell density, cells were passaged by centrifuging at 500 g for 3 minutes and resuspending the cells in fresh media. To avoid cross-contamination, cells were handled separately with separate bottles of media. Relevant data were obtained from cell lines passaged between P9 and P12.
To prepare agents for treatment of cells, each agent or agent mixture tested was dissolved in DMSO. […] 500,000 cells ells were seeded at 500,000 cells/mL and treated 24 h with agents in DMSO (0.1-0.2% DMSO final concentration). For the 24 hour treatment, cell media was changed immediately before treatment with agent and agent was added at the zero time point. The media was not changed during the 24 hour treatment time period.
After treatment with the agents or agent mixtures, cells were harvested and total RNA was purified with the RNeasy Mini Kit (Qiagen, Valencia, Calif.), including on-column DNase I treatment (ZYMO Research, Catalog number E1010), according to manufacturer's directions. […]

FXN protein [2] = experiment: Immunoblot for FXN protein in GM15850 cells; type: cell-based, human; conditions: GM15850, 24 hours, 1 μM (Agent 4: 0.1, 0.5 or 1 μM)
Method: as §1, §2

FXN-GAA-Luc = experiment: Luciferase reporter assay, FXN-GAA-Luc line (~310 GAA repeats); type: cell-based; conditions: 24 hours, 2 μM unless otherwise indicated (Agent 4 at 1 or 2)
Method: This reporter, which includes a ˜310 GAA repeat, recapitulates both the transcriptional repression and the heterochromatin formation at the endogenous FXN locus that are hallmarks of the FRDA disease.
Cells containing FXN-Luc or FXN-GAA-Luc were seeded onto 24-well plates at a confluency of 20%. The next day, media was refreshed and cells were treated 24 hours with the indicated compound at the indicated concentration. Next, cell lysates were harvested and analyzed with the Luciferase Assay System (Promega, Madison, Wis.) per manufacturer's directions on a Synergy H4 Hybrid Reader (BioTek, Winooski, Vt.).

Row | Structure (SMILES) | FXN protein (immunoblot) (FXN protein [1]) | increase in FXN mRNA levels (frataxin (FXN) mRNA) | FXN protein (immunoblot) (FXN protein [2]) | luciferase activity (FXN-GAA-Luc)
1 | Cc1sc2c(c1C)C(c1ccc(Cl)cc1)=N[C@@H](CC(=O)NCCOCCOCCOCCOCCOCCOCCC(=O)NCCCN(C)CCCNC(=O)CCNC(=O)c1cc(NC(=O)c3cc(NC(=O)c4nc(NC(=O)c5cc(NC(=O)CCCNC(=O)c6nc(NC(=O)c7cc(NC(=O)c8cc(NC(=O)c9sccc9Cl)cn8C)cn7C)cn6C)cn5C)cn4C)cn3C)cn1C)c1nnc(C)n1-2 [Control Conjugate 2] | increase in FXN protein | no increase |  | 
2 | Cc1sc2c(c1C)C(c1ccc(Cl)cc1)=N[C@@H](CC(=O)OC(C)(C)C)c1nnc(C)n1-2 [JQ1] |  | no increase | Neither polyamide alone (3), nor JQ1, nor the unconjugated treatment induced increased production of FXN protein | Significant activation was not observed
